Measured values taken from PMC10064817 (Pharmaceutical Biology, 2023).
Like-named read-outs stand apart in the source and are kept apart here.

Key:
[1] = test system: COVID-19; design: method as in Jayk Bernal et al. [2021]; settings: ref Jayk Bernal et al. [2021]; cited from earlier work
[2] = test system: SARS-CoV-2-infected Vero E6 cells; design: method as in Kanjanasirirat et al. [2020]; settings: ref Kanjanasirirat et al. [2020]; cited from earlier work
[3] = test system: SARS-CoV-2 infection; design: method as in Ansems et al. [2021]; settings: hospitalized patients with SARS-CoV-2 infection; ref Ansems et al. [2021]; cited from earlier work
[4] = test system: SARS-CoV-2-infected Calu-3 cells; design: method as in Sa-ngiamsuntorn et al. [2021]; settings: ref Sa-ngiamsuntorn et al. [2021]; cited from earlier work
[5] = in vivo; settings: male, beagle, dog
[6] = assay type: physicochemical; settings: 12 h
Description: The LCMS system was operated using a LCMS-8060 (Shimadzu, Kyoto, Japan) equipped with a C18 reversed phase column, Synergi 4 µm Fusion-RP 80 Å 50 × 2 mm (Phenomenex, Torrance, CA). The column oven was maintained at 40 °C and operated using a mobile phase consisting of 0.2% formic acid in water (solvent A) and 100% methanol (solvent B), with a gradient system (0–0.5 min 10% B, 0.5–1.5 min increase to 90% B, 1.5–2.5 min 90% B, 2.5–3.5 min decrease to 10% B, 3.5–4.5 min 10% B), at a flow rate of 0.5 mL/min, with a 10 μL injection volume. The mass spectrometer was a triple quadrupole with negative mode electrospray ionization (ESI). […] All the operations, acquisition and analysis of data were controlled by LabSolution software version 5.86 (Shimadzu, Japan). The LCMS method was validated for accuracy, precision, recovery and stability according to the guidance on bioanalytical method validation recommended by the FDA (USFDA [2018]).

[7] = rat, in vivo, po; cited from earlier work
[8] = dog, in vivo, iv, 1 mg/kg
[9] = predicted; ref PubChem [2004]; cited from earlier work

For `CC(C)C(=O)OC[C@H]1O[C@@H](n2ccc(NO)nc2=O)[C@H](O)[C@@H]1O` [molnupiravir], which “Reduced rate of hospitalization or death compared to placebo” value [1] is on record?
Its value is 30%.

Which IC50 [2] does the source give for `CCC(CC)COC(=O)[C@H](C)N[P@](=O)(OC[C@H]1O[C@@](C#N)(c2ccc3c(N)ncnn23)[C@H](O)[C@@H]1O)Oc1ccccc1` [remdesivir, reference compound] here?
The IC50 was 2710 nM.

And the “Effect on all-cause mortality at up to day 28” value [3]?
Its value is “little or no effect”.

For `C=C1CC[C@@H]2[C@](C)(CO)[C@H](O)CC[C@@]2(C)[C@@H]1C/C=C1/C(=O)OC[C@H]1O` [andrographolide], which IC50 [4] is on record?
Its IC50 is 34 nM.

With `COc1cc(O)c(C(=O)[C@@H]2[C@H](CC=C(C)C)C(C)=CC[C@H]2c2ccccc2)c(O)c1` [Panduratin A, panduratin A] as the molecule, how does the IC50 [2] read?
Its IC50 is 810 nM.

And the half-life [5]?
The half-life was 10 to 15 h.

And the AUC(0-inf) ([5]; iv, 1 mg/kg)?
The AUC(0-inf) was 209 µg·h/mL.

And the AUC(0-t) ([5]; iv, 1 mg/kg)?
The AUC(0-t) was 181 µg·h/mL.

What about the MRT ([5]; iv, 1 mg/kg) of the same molecule?
The MRT was 23.9 ± 3.27 h.

And the Vd ([5]; iv, 1 mg/kg)?
Its Vd is 0.1 ± 0.01 L/kg.

And the clearance ([5]; iv, 1 mg/kg)?
Its clearance is 0.167 mL/min/kg.

What about the concentration at 72 h ([5]; iv, 1 mg/kg) of the same molecule?
Its concentration at 72 h is 0.1 to 0.2 µg/mL.

What about the half-life ([5]; iv, 1 mg/kg) of the same molecule?
Its half-life is 15.2 h.

What about the Cmax ([5]; iv, 1 mg/kg, Cmax) of the same molecule?
The Cmax was about 100 µg/mL.

And the “Stability, Accuracy (%RE)” value ([6]; 10 µg/L)?
Its value is 9.75 %RE.

What about the “Stability, mean concentration found” value ([6]; 10 µg/L) of the same molecule?
Its value is 10.98 µg/L.

What about the “Stability, Accuracy (%RE)” value ([6]; 150 µg/L) of the same molecule?
The value was 4.48 %RE.

What about the “Stability, mean concentration found” value ([6]; 150 µg/L) of the same molecule?
The value was 156.72 µg/L.

And the “Stability, Accuracy (%RE)” value ([6]; 600 µg/L)?
Its value is 4.76 %RE.

And the “Stability, mean concentration found” value ([6]; 600 µg/L)?
The value was 628.57 µg/L.

And the Tissue distribution [7]?
The Tissue distribution was “distribution of panduratin A to various tissues, including skin, lung, heart, gum, liver, spleen, kidney and brain”.

What about the ALT [8] of the same molecule?
The ALT was 44 ± 7 U/L.

And the AST [8]?
Its AST is 24 ± 6 U/L.

What about the Alkaline phosphatase [8] of the same molecule?
The Alkaline phosphatase was 35 ± 4 U/L.

And the Blood urea nitrogen [8]?
The Blood urea nitrogen was 11.9 ± 1.6 mg/dL.

What about the Creatinine [8] of the same molecule?
Its Creatinine is 0.6 ± 0.1 mg/dL.

What about the Haemoglobin [8] of the same molecule?
The Haemoglobin was 14.2 ± 1.3 g/dL.

What about the Physical appearance [8] of the same molecule?
The Physical appearance was “Normal”.

What about the Platelet [8] of the same molecule?
The Platelet was 241 ± 44 x 10^3/µL.

What about the Red blood cell [8] of the same molecule?
The Red blood cell was 6.03 ± 0.66 x 10^6/µL.

What about the White blood cell [8] of the same molecule?
Its White blood cell is 7.83 ± 1.09 x 10^3/µL.

And the Hydrogen bond acceptors [9]?
The Hydrogen bond acceptors was “four”.

What about the Hydrogen bond donors [9] of the same molecule?
Its Hydrogen bond donors is “two”.
